Test results: publication PMC8632988, “Inhibition of SYK and cSrc kinases can protect bone and cartilage in preclinical models of osteoarthritis and rheumatoid arthritis” (Scientific Reports, 2021)

Experiments:
Experiment in all cases: Kinase selectivity profile assay
Type in all cases: biochemical
[1] = target: T1, AKT3 (Homo sapiens, UniProt Q9Y243); settings: 500 nM; relative to DMSO; read-out: Residual enzymatic activity
T1 construct: purchased Reaction Biology Corporation
Summary of the method: (§1)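 Radiometric kinase assay run by a standard protocol. Unbound phosphate was removed by washing filters in phosphoric acid, and product radioactivity gave percent remaining kinase activity versus DMSO vehicle reactions. Run in duplicate.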

[2] = target: T2, ALK3/BMPR1A (Homo sapiens, UniProt P36894); settings: 500 nM; relative to DMSO; read-out: Residual enzymatic activity
T2 construct: purchased Reaction Biology Corporation
Summary of the method: as §1

[3] = target: T3, ALK5/TGFBR1 (Homo sapiens, UniProt P36897); settings: 500 nM; relative to DMSO; read-out: Residual enzymatic activity
T3 construct: purchased Reaction Biology Corporation
Summary of the method: as §1

[4] = target: T4, Aurora C (Homo sapiens, UniProt Q9UQB9); settings: 500 nM; relative to DMSO; read-out: Residual enzymatic activity
T4 construct: purchased Reaction Biology Corporation
Summary of the method: as §1

[5] = target: T5, BMPR2 (Homo sapiens, UniProt Q13873); settings: 500 nM; relative to DMSO; read-out: Residual enzymatic activity
T5 construct: purchased Reaction Biology Corporation
Summary of the method: as §1

[6] = target: T6, BRSK1 (Homo sapiens, UniProt Q8TDC3); settings: 500 nM; relative to DMSO; read-out: Residual enzymatic activity
T6 construct: purchased Reaction Biology Corporation
Summary of the method: as §1

[7] = target: T7, CAMK4 (Homo sapiens, UniProt Q16566); settings: 500 nM; relative to DMSO; read-out: Residual enzymatic activity
T7 construct: purchased Reaction Biology Corporation
Summary of the method: as §1

[8] = target: T8, CDK1/cyclin B (Homo sapiens, UniProt P06493); settings: 500 nM; relative to DMSO; read-out: Residual enzymatic activity
T8 construct: purchased Reaction Biology Corporation
Summary of the method: as §1

[9] = target: T9, CDK2/cyclin E (Homo sapiens, UniProt P24941); settings: 500 nM; relative to DMSO; read-out: Residual enzymatic activity
T9 construct: purchased Reaction Biology Corporation
Summary of the method: as §1

[10] = target: T10, CDK6/cyclin D1 (Homo sapiens, UniProt Q00534); settings: 500 nM; relative to DMSO; read-out: Residual enzymatic activity
T10 construct: purchased Reaction Biology Corporation
Summary of the method: as §1

[11] = target: T11, CHK2 (Homo sapiens, UniProt O96017); settings: 500 nM; relative to DMSO; read-out: Residual enzymatic activity
T11 construct: purchased Reaction Biology Corporation
Summary of the method: as §1

[12] = target: T12, DDR1 (Homo sapiens, UniProt Q08345); settings: for remaining activity at 0.5 µM: 500 nM, relative to DMSO, read-out: Residual enzymatic activity
T12 construct: purchased Reaction Biology Corporation (assay service)
Summary of the method: as §1

[13] = target: T13, DDR2 (Homo sapiens, UniProt Q16832); settings: 500 nM; relative to DMSO; read-out: Residual enzymatic activity
T13 construct: purchased Reaction Biology Corporation
Summary of the method: as §1

[14] = target: T14, DLK/MAP3K12 (Homo sapiens, UniProt Q12852); settings: 500 nM; relative to DMSO; read-out: Residual enzymatic activity
T14 construct: purchased Reaction Biology Corporation
Summary of the method: as §1

[15] = target: T15, DYRK1/DYRK1A (Homo sapiens, UniProt Q13627); settings: 500 nM; relative to DMSO; read-out: Residual enzymatic activity
T15 construct: purchased Reaction Biology Corporation
Summary of the method: as §1

[16] = target: T16, DYRK1B (Homo sapiens, UniProt Q9Y463); settings: 500 nM; relative to DMSO; read-out: Residual enzymatic activity
T16 construct: purchased Reaction Biology Corporation
Summary of the method: as §1

[17] = target: T17, EPHA5 (Homo sapiens, UniProt P54756); settings: 500 nM, relative to DMSO
T17 construct: purchased Reaction Biology Corporation
Summary of the method: as §1

[18] = target: T18, FMS (Homo sapiens, UniProt P07333); settings: 500 nM; relative to DMSO; read-out: Residual enzymatic activity
T18 construct: purchased Reaction Biology Corporation
Summary of the method: as §1

[19] = target: T19, GLK/MAP4K3 (Homo sapiens, UniProt Q8IVH8); settings: 500 nM; relative to DMSO; read-out: Residual enzymatic activity
T19 construct: purchased Reaction Biology Corporation
Summary of the method: as §1

[20] = target: T20, GRK1 (Homo sapiens, UniProt Q15835); settings: 500 nM; relative to DMSO; read-out: Residual enzymatic activity
T20 construct: purchased Reaction Biology Corporation
Summary of the method: as §1

[21] = target: T21, IKKe/IKBKE (Homo sapiens, UniProt Q14164); settings: 500 nM; relative to DMSO; read-out: Residual enzymatic activity
T21 construct: purchased Reaction Biology Corporation
Summary of the method: as §1

[22] = target: T22, LATS2 (Homo sapiens, UniProt Q9NRM7); settings: 500 nM; relative to DMSO; read-out: Residual enzymatic activity
T22 construct: purchased Reaction Biology Corporation
Summary of the method: as §1

[23] = target: T23, MAPKAPK5/PRAK (Homo sapiens, UniProt Q8IW41); settings: 500 nM; relative to DMSO; read-out: Residual enzymatic activity
T23 construct: purchased Reaction Biology Corporation
Summary of the method: as §1

[24] = target: T24, MARK4 (Homo sapiens, UniProt Q96L34); settings: 500 nM; relative to DMSO; read-out: Residual enzymatic activity
T24 construct: purchased Reaction Biology Corporation
Summary of the method: as §1

[25] = target: T25, MEKK3 (Homo sapiens, UniProt Q99759); settings: 500 nM; relative to DMSO; read-out: Residual enzymatic activity
T25 construct: purchased Reaction Biology Corporation
Summary of the method: as §1

[26] = target: T26, MST4 (Homo sapiens, UniProt Q9P289); settings: 500 nM; relative to DMSO; read-out: Residual enzymatic activity
T26 construct: purchased Reaction Biology Corporation
Summary of the method: as §1

[27] = target: T27, NEK6 (Homo sapiens, UniProt Q9HC98); settings: 500 nM; relative to DMSO; read-out: Residual enzymatic activity
T27 construct: purchased Reaction Biology Corporation
Summary of the method: as §1

[28] = target: T28, P38d/MAPK13 (Homo sapiens, UniProt O15264); settings: 500 nM; relative to DMSO; read-out: Residual enzymatic activity
T28 construct: purchased Reaction Biology Corporation
Summary of the method: as §1

[29] = target: T29, PAK5 (Homo sapiens, UniProt Q9P286); settings: 500 nM; relative to DMSO; read-out: Residual enzymatic activity
T29 construct: purchased Reaction Biology Corporation
Summary of the method: as §1

[30] = target: T30, PDGFRb (Homo sapiens, UniProt P09619); settings: for remaining activity at 0.5 µM: 500 nM, relative to DMSO, read-out: Residual enzymatic activity
T30 construct: purchased Reaction Biology Corporation (Malvern, PA, USA)
Summary of the method: as §1

[31] = target: T31, PIM2 (Homo sapiens, UniProt Q9P1W9); settings: 500 nM; relative to DMSO; read-out: Residual enzymatic activity
T31 construct: purchased Reaction Biology Corporation
Summary of the method: as §1

[32] = target: T32, PKCa (Homo sapiens, UniProt P17252); settings: 500 nM; relative to DMSO; read-out: Residual enzymatic activity
T32 construct: purchased Reaction Biology Corporation
Summary of the method: as §1

[33] = target: T33, PKCnu/PRKD3 (Homo sapiens, UniProt O94806); settings: 500 nM; relative to DMSO; read-out: Residual enzymatic activity
T33 construct: purchased Reaction Biology Corporation
Summary of the method: as §1

[34] = target: T34, RIPK2 (Homo sapiens, UniProt O43353); settings: 500 nM; relative to DMSO; read-out: Residual enzymatic activity
T34 construct: purchased Reaction Biology Corporation
Summary of the method: as §1

[35] = target: T35, STK39/STLK3 (Homo sapiens, UniProt Q9UEW8); settings: 500 nM; relative to DMSO; read-out: Residual enzymatic activity
T35 construct: purchased Reaction Biology Corporation
Summary of the method: as §1

[36] = target: T36, TAOK2/TAO1 (Homo sapiens, UniProt Q9UL54); settings: 500 nM; relative to DMSO; read-out: Residual enzymatic activity
T36 construct: purchased Reaction Biology Corporation
Summary of the method: as §1

[37] = target: T37, TEC (Homo sapiens, UniProt P42680); settings: 500 nM; relative to DMSO; read-out: Residual enzymatic activity
T37 construct: purchased Reaction Biology Corporation
Summary of the method: as §1

[38] = target: T38, TRKB (Homo sapiens, UniProt Q16620); settings: 500 nM; relative to DMSO; read-out: Residual enzymatic activity
T38 construct: purchased Reaction Biology Corporation
Summary of the method: as §1

[39] = target: T39, c-MER (Homo sapiens, UniProt Q12866); settings: 500 nM; relative to DMSO; read-out: Residual enzymatic activity
T39 construct: purchased Reaction Biology Corporation
Summary of the method: as §1

[40] = 10-dose mode, threefold serial dilution from 10 μM

T12 sequence (Q08345 19-913): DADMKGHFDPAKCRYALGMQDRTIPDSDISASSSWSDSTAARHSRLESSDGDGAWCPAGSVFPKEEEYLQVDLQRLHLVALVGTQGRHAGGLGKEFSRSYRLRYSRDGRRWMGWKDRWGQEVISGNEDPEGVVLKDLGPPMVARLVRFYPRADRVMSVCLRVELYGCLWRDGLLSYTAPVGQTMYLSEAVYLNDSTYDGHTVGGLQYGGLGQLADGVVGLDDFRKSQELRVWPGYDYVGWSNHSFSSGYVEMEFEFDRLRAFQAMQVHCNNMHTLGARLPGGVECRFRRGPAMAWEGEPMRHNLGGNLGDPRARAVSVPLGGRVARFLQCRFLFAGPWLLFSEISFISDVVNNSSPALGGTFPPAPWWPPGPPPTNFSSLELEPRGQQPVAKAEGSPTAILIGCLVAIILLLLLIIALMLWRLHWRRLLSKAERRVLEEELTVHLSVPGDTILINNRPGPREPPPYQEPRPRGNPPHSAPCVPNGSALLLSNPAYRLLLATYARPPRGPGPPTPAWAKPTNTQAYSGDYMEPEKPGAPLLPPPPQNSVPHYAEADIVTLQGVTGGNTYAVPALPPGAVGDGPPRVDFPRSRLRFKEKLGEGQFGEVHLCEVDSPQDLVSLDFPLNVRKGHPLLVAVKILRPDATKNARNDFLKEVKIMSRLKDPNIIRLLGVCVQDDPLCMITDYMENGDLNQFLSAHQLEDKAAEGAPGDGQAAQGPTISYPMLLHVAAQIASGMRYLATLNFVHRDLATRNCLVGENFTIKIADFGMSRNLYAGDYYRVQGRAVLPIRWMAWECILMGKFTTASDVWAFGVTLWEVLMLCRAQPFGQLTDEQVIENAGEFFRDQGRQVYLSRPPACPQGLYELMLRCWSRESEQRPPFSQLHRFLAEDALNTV
T30 sequence (P09619 33-1106): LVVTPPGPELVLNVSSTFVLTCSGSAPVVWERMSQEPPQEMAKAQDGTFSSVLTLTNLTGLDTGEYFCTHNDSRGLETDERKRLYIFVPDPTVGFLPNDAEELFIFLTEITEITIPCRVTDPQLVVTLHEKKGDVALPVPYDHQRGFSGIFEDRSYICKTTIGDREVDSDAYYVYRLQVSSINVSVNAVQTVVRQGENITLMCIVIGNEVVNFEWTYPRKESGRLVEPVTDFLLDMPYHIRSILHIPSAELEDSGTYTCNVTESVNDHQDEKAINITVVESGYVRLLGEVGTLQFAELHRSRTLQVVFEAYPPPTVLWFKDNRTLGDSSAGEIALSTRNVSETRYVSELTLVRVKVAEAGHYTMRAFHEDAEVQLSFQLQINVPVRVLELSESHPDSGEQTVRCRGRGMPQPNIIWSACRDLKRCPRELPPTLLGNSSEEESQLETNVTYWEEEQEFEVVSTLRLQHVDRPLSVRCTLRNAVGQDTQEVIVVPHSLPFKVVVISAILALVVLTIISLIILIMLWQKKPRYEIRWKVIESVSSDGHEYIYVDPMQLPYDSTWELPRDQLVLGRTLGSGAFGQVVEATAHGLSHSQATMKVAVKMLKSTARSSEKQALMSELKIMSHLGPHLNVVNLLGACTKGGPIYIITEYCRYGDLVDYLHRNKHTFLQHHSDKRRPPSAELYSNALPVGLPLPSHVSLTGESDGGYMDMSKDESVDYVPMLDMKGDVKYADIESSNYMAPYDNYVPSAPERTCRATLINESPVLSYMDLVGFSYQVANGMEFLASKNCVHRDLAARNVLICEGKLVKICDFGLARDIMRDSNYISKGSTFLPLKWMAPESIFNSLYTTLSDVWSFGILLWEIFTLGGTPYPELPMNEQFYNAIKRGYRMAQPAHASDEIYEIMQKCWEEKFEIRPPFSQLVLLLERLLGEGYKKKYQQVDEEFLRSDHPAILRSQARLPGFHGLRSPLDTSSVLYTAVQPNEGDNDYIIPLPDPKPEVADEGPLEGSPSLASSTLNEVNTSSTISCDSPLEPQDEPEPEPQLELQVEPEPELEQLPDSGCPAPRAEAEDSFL
T36 sequence (Q9UL54 whole entry): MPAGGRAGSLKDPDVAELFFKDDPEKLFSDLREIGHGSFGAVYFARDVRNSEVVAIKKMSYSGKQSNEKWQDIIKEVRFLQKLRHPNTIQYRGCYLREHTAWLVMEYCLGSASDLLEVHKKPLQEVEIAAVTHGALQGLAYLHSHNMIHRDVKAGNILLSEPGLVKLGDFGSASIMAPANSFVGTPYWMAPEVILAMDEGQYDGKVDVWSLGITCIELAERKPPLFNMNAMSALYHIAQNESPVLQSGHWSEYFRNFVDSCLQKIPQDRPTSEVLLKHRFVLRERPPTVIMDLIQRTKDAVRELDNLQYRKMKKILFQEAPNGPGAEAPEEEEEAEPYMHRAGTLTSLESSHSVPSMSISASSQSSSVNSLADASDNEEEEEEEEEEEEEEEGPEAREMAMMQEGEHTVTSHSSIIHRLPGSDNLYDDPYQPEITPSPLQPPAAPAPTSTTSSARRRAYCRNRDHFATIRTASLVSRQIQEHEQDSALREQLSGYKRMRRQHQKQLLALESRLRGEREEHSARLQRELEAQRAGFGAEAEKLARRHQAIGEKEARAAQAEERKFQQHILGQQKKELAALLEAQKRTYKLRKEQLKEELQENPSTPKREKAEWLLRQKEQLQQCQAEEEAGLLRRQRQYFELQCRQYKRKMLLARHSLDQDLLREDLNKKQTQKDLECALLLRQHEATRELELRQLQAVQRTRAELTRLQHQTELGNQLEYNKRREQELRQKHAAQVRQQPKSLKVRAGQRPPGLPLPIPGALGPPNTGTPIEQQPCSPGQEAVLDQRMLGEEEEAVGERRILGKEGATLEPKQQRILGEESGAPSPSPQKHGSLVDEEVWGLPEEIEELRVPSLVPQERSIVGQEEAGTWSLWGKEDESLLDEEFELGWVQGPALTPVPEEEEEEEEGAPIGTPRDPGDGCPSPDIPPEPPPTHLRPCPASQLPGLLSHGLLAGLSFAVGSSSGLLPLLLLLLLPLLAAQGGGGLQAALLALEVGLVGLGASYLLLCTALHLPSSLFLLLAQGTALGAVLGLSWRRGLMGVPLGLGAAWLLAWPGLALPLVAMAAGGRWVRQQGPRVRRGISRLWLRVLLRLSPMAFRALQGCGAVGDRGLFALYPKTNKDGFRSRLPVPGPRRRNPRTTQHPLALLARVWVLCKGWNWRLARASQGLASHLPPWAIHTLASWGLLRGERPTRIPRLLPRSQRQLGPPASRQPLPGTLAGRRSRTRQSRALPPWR
T18 sequence (P07333 20-972): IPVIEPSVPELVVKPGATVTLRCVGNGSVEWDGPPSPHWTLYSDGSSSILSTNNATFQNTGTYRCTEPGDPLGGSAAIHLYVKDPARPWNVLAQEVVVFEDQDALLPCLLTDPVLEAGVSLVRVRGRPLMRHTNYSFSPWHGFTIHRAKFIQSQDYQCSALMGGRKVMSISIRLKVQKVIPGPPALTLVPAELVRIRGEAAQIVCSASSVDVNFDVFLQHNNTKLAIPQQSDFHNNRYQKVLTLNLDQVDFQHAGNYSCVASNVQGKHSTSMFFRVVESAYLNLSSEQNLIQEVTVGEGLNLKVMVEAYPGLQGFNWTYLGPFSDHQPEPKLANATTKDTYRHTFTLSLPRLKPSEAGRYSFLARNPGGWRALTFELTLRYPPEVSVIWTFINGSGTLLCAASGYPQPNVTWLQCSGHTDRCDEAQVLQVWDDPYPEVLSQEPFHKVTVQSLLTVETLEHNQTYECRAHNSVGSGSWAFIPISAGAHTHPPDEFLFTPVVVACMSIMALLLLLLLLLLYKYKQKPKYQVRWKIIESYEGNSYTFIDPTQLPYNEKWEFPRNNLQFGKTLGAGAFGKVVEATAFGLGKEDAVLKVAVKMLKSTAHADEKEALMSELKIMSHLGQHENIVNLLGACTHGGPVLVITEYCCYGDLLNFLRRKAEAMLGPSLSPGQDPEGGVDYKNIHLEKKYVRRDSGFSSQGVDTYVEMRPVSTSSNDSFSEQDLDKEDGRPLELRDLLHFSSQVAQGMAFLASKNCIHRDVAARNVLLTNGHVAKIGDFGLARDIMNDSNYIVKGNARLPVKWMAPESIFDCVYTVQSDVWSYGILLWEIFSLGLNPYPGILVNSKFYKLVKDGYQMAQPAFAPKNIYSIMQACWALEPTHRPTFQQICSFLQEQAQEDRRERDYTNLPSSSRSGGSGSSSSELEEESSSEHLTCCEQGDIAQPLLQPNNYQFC
T10 sequence (Q00534 whole entry): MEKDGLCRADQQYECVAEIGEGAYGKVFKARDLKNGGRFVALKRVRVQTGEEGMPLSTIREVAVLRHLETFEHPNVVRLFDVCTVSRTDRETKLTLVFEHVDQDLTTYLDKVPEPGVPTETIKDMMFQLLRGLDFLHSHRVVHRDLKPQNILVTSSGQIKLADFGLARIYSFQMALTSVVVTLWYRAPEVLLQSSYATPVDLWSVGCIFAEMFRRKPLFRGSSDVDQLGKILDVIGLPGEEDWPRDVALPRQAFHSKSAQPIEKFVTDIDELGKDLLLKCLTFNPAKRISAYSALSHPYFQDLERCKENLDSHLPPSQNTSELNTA
T10 sequence (P24385 whole entry partner): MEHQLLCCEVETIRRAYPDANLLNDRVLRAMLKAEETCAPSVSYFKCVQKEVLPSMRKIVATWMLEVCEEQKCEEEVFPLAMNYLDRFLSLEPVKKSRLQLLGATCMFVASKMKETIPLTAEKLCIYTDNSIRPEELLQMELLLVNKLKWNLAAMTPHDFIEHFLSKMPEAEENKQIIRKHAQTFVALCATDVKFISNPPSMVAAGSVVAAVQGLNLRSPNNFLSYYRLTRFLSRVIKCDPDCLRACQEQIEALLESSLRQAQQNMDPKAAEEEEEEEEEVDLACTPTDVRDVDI

COc1cc(Nc2ncnc(Nc3cc4c(cn3)NC(=O)C(C)(C)O4)n2)cc(OC)c1OC [MT-SYK-03]
remaining activity at 0.5 µM [1]: 103% | remaining activity at 0.5 µM [2]: 130% | remaining activity at 0.5 µM [3]: 104% | remaining activity at 0.5 µM [4]: 89.2% | remaining activity at 0.5 µM [5]: 90% | remaining activity at 0.5 µM [6]: 92.6% | remaining activity at 0.5 µM [7]: 111% | remaining activity at 0.5 µM [8]: 96% | remaining activity at 0.5 µM [9]: 82.1% | remaining activity at 0.5 µM [10]: 91.8% | remaining activity at 0.5 µM [11]: 95% | remaining activity at 0.5 µM [12]: 4.7% | IC50 [12, 40]: 1.8 nM | inhibition at 0.5 µM ([12]; read-out: Inhibition at 500 nM): > 90% | remaining activity at 0.5 µM [13]: 69% | remaining activity at 0.5 µM [14]: 83.7% | remaining activity at 0.5 µM [15]: 90.5% | remaining activity at 0.5 µM [16]: 90.6% | Residual enzymatic activity [17]: 76.4% | remaining activity at 0.5 µM [18]: 51.1% | remaining activity at 0.5 µM [19]: 94.1% | remaining activity at 0.5 µM [20]: 105% | remaining activity at 0.5 µM [21]: 77.5% | remaining activity at 0.5 µM [22]: 85.3% | remaining activity at 0.5 µM [23]: 92.3% | remaining activity at 0.5 µM [24]: 92.1% | remaining activity at 0.5 µM [25]: 116% | remaining activity at 0.5 µM [26]: 112% | remaining activity at 0.5 µM [27]: 103% | remaining activity at 0.5 µM [28]: 119% | remaining activity at 0.5 µM [29]: 98.5% | remaining activity at 0.5 µM [30]: 24.5% | IC50 [30, 40]: 4.5 nM | remaining activity at 0.5 µM [31]: 97.2% | remaining activity at 0.5 µM [32]: 92.3% | remaining activity at 0.5 µM [33]: 99.9% | remaining activity at 0.5 µM [34]: 84.7% | remaining activity at 0.5 µM [35]: 107% | remaining activity at 0.5 µM [36]: 105% | remaining activity at 0.5 µM [37]: 71% | remaining activity at 0.5 µM [38]: 92.4% | remaining activity at 0.5 µM [39]: 109%

COc1cc(Nc2ncc(F)c(Nc3ccc4c(n3)NC(=O)C(C)(C)O4)n2)cc(OC)c1OC [R406, reference compound]
remaining activity at 0.5 µM [1]: 95.2% | remaining activity at 0.5 µM [2]: 120% | remaining activity at 0.5 µM [3]: 108% | remaining activity at 0.5 µM [4]: 42.1% | remaining activity at 0.5 µM [5]: 71.1% | remaining activity at 0.5 µM [6]: 61.6% | remaining activity at 0.5 µM [7]: 120% | remaining activity at 0.5 µM [8]: 75.6% | remaining activity at 0.5 µM [9]: 60% | remaining activity at 0.5 µM [10]: 93.4% | remaining activity at 0.5 µM [11]: 50.7% | remaining activity at 0.5 µM [12]: 1% | remaining activity at 0.5 µM [13]: 31.5% | remaining activity at 0.5 µM [14]: 70.6% | remaining activity at 0.5 µM [15]: 53% | remaining activity at 0.5 µM [16]: 72.5% | remaining activity at 0.5 µM ([17]; read-out: Residual enzymatic activity): 60.9% | remaining activity at 0.5 µM [18]: 17.2% | remaining activity at 0.5 µM [19]: 65.8% | remaining activity at 0.5 µM [20]: 96% | remaining activity at 0.5 µM [21]: 16.1% | remaining activity at 0.5 µM [22]: 51.2% | remaining activity at 0.5 µM [23]: 99.4% | remaining activity at 0.5 µM [24]: 46.7% | remaining activity at 0.5 µM [25]: 76.1% | remaining activity at 0.5 µM [26]: 94.8% | remaining activity at 0.5 µM [27]: 70.5% | remaining activity at 0.5 µM [28]: 84.7% | remaining activity at 0.5 µM [29]: 49% | remaining activity at 0.5 µM [30]: 6.1% | remaining activity at 0.5 µM [31]: 95.6% | remaining activity at 0.5 µM [32]: 58.3% | remaining activity at 0.5 µM [33]: 72.8% | remaining activity at 0.5 µM [34]: 73% | remaining activity at 0.5 µM [35]: 107% | remaining activity at 0.5 µM [36]: 47.4% | remaining activity at 0.5 µM [37]: 39.4% | remaining activity at 0.5 µM [38]: 28% | remaining activity at 0.5 µM [39]: 73.9%
